The values that follow come from publication PMC8297771 (PLoS Pathogens, 2021).

One data set deals with HIV-1_89.6. Put plainly: In vitro anti-viral assay in CEMx174 cells (p24). The settings on record: HIV-1 89.6 / CEMx174 cells; read-out: IC50. In kind it is cell-based. On the procedure:
(§1) CEMx174 cells were infected with HIV-1 primary isolate 89.6 (From infectious clone p89.6, NIH AIDS Reagent Program) at approximately at 10% of cell population determined by FACS analyses. To determine antiviral activity during virus production, STP0404 was added at concentration in the range of 0.1 nM—10 μM during media exchange at 4 hrs post-infection. DMSO was used as a negative control. Cell-free supernatants were measured for p24 antigen production, 5 days post-infection. The anti-HIV-1 efficacy of the two enantiomers of STP0404 were also determined by using the same protocol. All assays were conducted in triplicates. The IC50 values were computed using GraphPad Prism (Version 9) and presented as means ± S.D. of the triplicates. For SIVmac239, CEMx174 cells were infected with viral supernatant containing SIVmac293 at 50,000 TCID50/mL (kind gift from Dr. G. Silvestri, Emory Yerkes National Primate Research Center) with 100 μL/10^6 cells at varying concentrations of STP0404, BI224436, and Raltegravir, and the same above protocol was followed except for that p27 capsid antigen content was measured daily for 5 days post infection.

The next data set concerns HIV-1NL4-3. The experiment in a line: In vitro anti-viral assay in human PBMCs (RT activity readout). The class given is cell-based. The following applies: for TI (TC50 / IC50): minimal TI from IC50 and 10 μM. On the procedure: (§2) For the assay with human PBMCs, PHA stimulated cells from at least two pooled healthy were infected with HIV-1 strains in 96-well plates. Test drug dilutions, which were prepared at a 2X concentration in microtiter tubes and 100 μL of each concentration (nine total concentrations), were placed in appropriate wells using the standard format. 50 μL of a predetermined dilution of virus stock was placed in each test well (final MOI ≅ 0.1). The PBMC cultures were maintained for 7 days following infection at 37 °C, 5% CO2. After this period, cell-free supernatant samples were collected for analysis of reverse transcriptase (RT) activity. All assays were conducted in triplicates. For RT assay, a microtiter plate-based reverse transcriptase (RT) reaction was utilized (Buckheit et al., AIDS Research and Human Retroviruses 7:295–302, 1991). Tritiated thymidine triphosphate (^3H-TTP, 80 Ci/mmol, NEN) is received in 1:1 dH2O: Ethanol at 1 mCi/mL. Poly rA:oligo dT template:primer (GE Healthcare) was prepared as a stock solution by combining 150 μL poly rA (20 mg/mL) with 0.5 mL oligo dT (20 units/mL) and 5.35 mL sterile dH2O followed by aliquoting (1.0 mL) and storage at—20°C. The RT reaction buffer was prepared fresh on a daily basis and consisted of 125 μL 1.0 M EGTA, 125 μL dH2O, 125 μL 20% Triton X100, 50 μL 1.0 M Tris (pH 7.4), 50 μL 1.0 M DTT, and 40 μL 1.0 M MgCl2. The final reaction mixture was prepared by combining 1 part ^3H-TTP, 4 parts dH2O, 2.5 parts poly rA:oligo dT stock and 2.5 parts reaction buffer. Ten microliters of this reaction mixture were placed in a round bottom microtiter plate and 15 μL of virus containing supernatant is added and mixed. The plate was incubated at 37°C for 60 mins. Following incubation, the reaction volume was spotted onto DE81 filter-mats (Wallac), washed 5 times for 5 mins each in a 5% sodium phosphate buffer or 2X SSC (Life Technologies). Next they were washed 2 times for 1 min each in distilled water, 2 times for 1 min each in 70% ethanol, and then dried. Incorporated radioactivity (counts per min, CPM) was quantified using standard liquid scintillation techniques. These PBMC analysis was conducted by fee to service through Southern Research Institute (Frederick, MD, USA). The IC50 were analyzed using GraphPad Prism (Version 9) and presented as means ± S.D. of the triplicates.

Data set [1] relates to Ral-resistant (1556_1) clinical isolate. Described as above. In kind it is cell-based, HIV-1. As for the experimental part:
as §2

Data set [2] concerns Ral-resistant (4736_2) clinical isolate. The data set is described as above. The class given is cell-based, HIV-1. As for the experimental part: as §2
Data set [3] has as its system Ral-resistant (4736_4) clinical isolate. The description is as above. In kind it is cell-based, HIV-1. On the procedure:
as §2

The test system of data set [4] is Ral-resistant (8070_1) clinical isolate. The data set is described as above. In kind it is cell-based, HIV-1. The settings on record: for TI (TC50 / IC50): human PBMCs, Ral-resistant (8070_1). As for the experimental part: as §2
Data set [5] relates to Ral-resistant (8070_2) clinical isolate. The description is as above. The class given is cell-based, HIV-1. On the procedure: as §2
The next data set has as its system human PBMCs. Put plainly: Tissue culture cytotoxicity measurement in human PBMCs. The class given is cell-based. The following applies: human PBMCs. The text has this:
Multiple chemical scaffolds such as quinoline (BI224436, Fig 1A), benzothiazole (GS-9822, Fig 1B) and pyridine (KF116, Fig 1C) were previously explored for the discovery of ALLINIs. Here, we employed the pyrrolopyridine-based scaffold to synthesize an ALLINI candidate compound, STP0404 (Fig 1D). STP0404 harbors the tert-butoxy moiety that is common to other ALLINIs (Fig 1). First, we measured its in vitro anti-HIV-1 efficacy and cytotoxicity using various HIV-1 strains in multiple cell types, with cytotoxicity initially tested up to 10 μM (Table 1). […] The calculated in vitro minimum therapeutic index (TI) of STP0404 under these conditions was accordingly >25,000. For comparison, we employed two FDA-approved HIV-1 inhibitors, AZT (RT inhibitor) and Raltegravir (Ral, INSTI), alongside 5 different Ral-resistant clinical isolates (Table 1).

The subject of the next data set is HIV-1 NL4-3. The experiment in a line: In vitro anti-viral assay in MT4 cells. In kind it is cell-based.
The subject of a further data set is MT4 cells. The experiment in a line: Tissue culture cytotoxicity measurement in MT4 cells. In kind it is cell-based. The text has this:
Fig 1 ALLINI structures and STP0404 activities. […] Pyridine-based KF116, D. Pyrrolopyridine-based STP0404. The conserved chemical moiety containing tert-butoxy and carboxylic acid groups are marked by “]”.

For data set [6], the system named is HIV-1_89.6 passage 14 viral population (Y99H and A128T). The experiment in a line: Susceptibility of STP0404-selected viral population, passage 14, in CEMx174 cells. The class given is cell-based. The following applies: passage 14 viral population (Y99H and A128T) vs wild type HIV-1_89.6. On the procedure:
CEM x174 cells infected with HIV primary isolate 89.6 were cultured in the presence of STP0404 at the concentration of IC90 determined earlier. At each passage, cells from original culture in the presence of inhibitor (0.75x10^6 cells) were mixed with equal amount of no-drug control cells to propagate, and viral replication was monitored by the production of p24 antigen in the supernatant. […] The population of drug-induced mutations at each passage mentioned above was determined by sequencing of at least 10 resulting transformants.
CEM x174 cells were infected with cell-free viral supernatant collected during virus resistance assays above. […] The viral stocks were normalized by the amount of p24 capsid antigen, determined to infect CEMx174 cells at approximately 10% of populations (10,000 pg / 10^6 cells). […] Cell-free supernatants were measured for p24 antigen production 5 days post-infection. p89.6 plasmid was applied for Quickchange kit (Invitrogen) to create Y99H single, A128T single, Y99H/A128T double mutants as well as two natural variants (A124N and T125A), and these 89.6 variant viruses were generated by transfecting 293T cells and culturing the produced viruses in CEMx174 cells. The IC50 of STP0404 against respective viruses were analyzed using GraphPad Prism (Version 9) and presented as means ± S.D. of triplicates. […]

The next data set concerns SIVmac239. The experiment in a line: In vitro efficacy test against SIVmac239 in CEMx174 cells (p27). In kind it is cell-based, SIV. The following applies: p27 assay. As for the experimental part:
as §1, with “The IC50 values were computed using GraphPad Prism (Version 9) and presented as means ± S.D. of the triplicates.” left out
Supplementary file ppat.1009671.s004.tiff: S1 Fig In vitro efficacy tests of STP0404, BI224436 and Raltegravir against SIVmac239 in CEMx174 cell culture. CEMx174 cells were infected with SIVmac239 with various concentrations of STP0404, BI224436, and Raltegravir, and the viral production was determined by p27 assay at 5 days post infection. […]

The mark [7] stands for this setting: column under Ral-resistant (1556_1).
[8] abbreviates: column under Ral-resistant (4736_2).
Where [9] appears, read: column under Ral-resistant (4736_4).
The mark [10] stands for this setting: column under Ral-resistant (8070_1).
Setting [11] is: column under Ral-resistant (8070_2).
Setting [12] is: Human immunodeficiency virus 1, PBMC.

The structures appear in SMILES notation. Where two headings read alike, the source gives them in different places.

The IC50 is the midpoint of a concentration-inhibition curve.

Regarding `Cc1nc2c(c(C)c(C)n2Cc2cnn(C)c2)c(-c2ccc(Cl)cc2)c1[C@H](OC(C)(C)C)C(=O)O` [(S) form], the IC50 in the data set with HIV-1_89.6 is 1.3 nM.

On to `Cc1cn([C@H]2C[C@H](N=[N+]=[N-])[C@@H](CO)O2)c(=O)[nH]c1=O` [AZT], for which the IC50 with HIV-1NL4-3 (human PBMCs, NL4-3, mean of triplicates ± SD, read-out: IC50) was 8.92 ± 2.08 nM; in [1], 9.33 ± 0.22 nM; in [2] (human PBMCs, Ral-resistant (4736_2), read-out: IC50), 0.42 ± 0.37 nM; in [3] (human PBMCs, Ral-resistant (4736_4), read-out: IC50), 6.71 ± 5.74 nM; in data set [5], 79.9 ± 11.8 nM; in the data set on HIV-1 NL4-3 (HIV-1 NL4-3 / MT4 cells, read-out: IC50) it was 56 ± 23.5 nM. Moreover, the “TI (TC50 / IC50)” value in the data set with HIV-1NL4-3 (human PBMCs, NL4-3) is >1,121; in data set [1], >1,000; in [2] (human PBMCs, Ral-resistant (4736_2)) it was >23,000; in data set [4], >1,490; in data set [5] it was above 125; in the data set on HIV-1 NL4-3 (HIV-1 NL4-3 / MT4 cells), above 179. In addition, the TC50 with human PBMCs (NL4-3, tested up to 10 μM) is given as >10,000 nM; with human PBMCs (setting [7]), >10,000 nM; in the data set with human PBMCs (setting [8]), >10,000 nM; in the data set on human PBMCs (setting [9]), >10,000 nM; in the data set with human PBMCs (setting [10]), >10,000 nM; in the data set on human PBMCs (setting [11]) it was >10,000 nM. For the same molecule, the TC50 with MT4 cells is on record as > 10,000 nM.

Consider `Cc1nc2ccccc2c(-c2ccc3c4c(ccnc24)CCO3)c1[C@H](OC(C)(C)C)C(=O)O` [BI224436, reference compound], for which the IC50 fold increase in [6] came out at 40.5 fold. For the same molecule, the “inhibition of SIVmac239” value in the data set with SIVmac239 is given as “failed to inhibit”.

For the molecule `Cc1nnc(C(=O)NC(C)(C)c2nc(C(=O)NCc3ccc(F)cc3)c(O)c(=O)n2C)o1` [Raltegravir], the IC50 was 0.44 ± 0.74 nM in the data set on HIV-1NL4-3 (Human immunodeficiency virus 1, NL43, PBMC); above 500 nM in data set [1] (setting [12]); above 50 nM in [2] (setting [12]); 36.5 ± 53.6 nM in data set [3] (setting [12]); above 1000 nM in data set [4] (setting [12]); above 100 nM in [5] (setting [12]). Moreover, inhibition with HIV-1 NL4-3 (Human immunodeficiency virus 1, NL43, MT4) was half-maximal at 3.69 ± 2.8 nM (IC50). Besides, the “TI (TC50 / IC50)” value with HIV-1NL4-3 (human PBMCs, NL4-3) is recorded as >22,700; in data set [1], around 20; in [3] (human PBMCs, Ral-resistant (4736_4)), above 270; in data set [4], around 10; in data set [5] it was around 100; in the data set with HIV-1 NL4-3 (HIV-1 NL4-3 / MT4 cells), > 2,710. The TC50 with human PBMCs (NL4-3, tested up to 10 μM) is >10,000 nM; with human PBMCs (setting [7]), >10,000 nM; in the data set on human PBMCs (setting [8]) it was >10,000 nM; with human PBMCs (setting [9]), >10,000 nM; in the data set on human PBMCs (setting [10]), >10,000 nM; with human PBMCs (setting [11]), >10,000 nM. In addition, in the data set with MT4 cells, the TC50 is recorded as > 10,000 nM.
